One assay deals with T1, human recombinant renin (Homo sapiens, UniProt P00797).
T1 sequence (P00797 67-406): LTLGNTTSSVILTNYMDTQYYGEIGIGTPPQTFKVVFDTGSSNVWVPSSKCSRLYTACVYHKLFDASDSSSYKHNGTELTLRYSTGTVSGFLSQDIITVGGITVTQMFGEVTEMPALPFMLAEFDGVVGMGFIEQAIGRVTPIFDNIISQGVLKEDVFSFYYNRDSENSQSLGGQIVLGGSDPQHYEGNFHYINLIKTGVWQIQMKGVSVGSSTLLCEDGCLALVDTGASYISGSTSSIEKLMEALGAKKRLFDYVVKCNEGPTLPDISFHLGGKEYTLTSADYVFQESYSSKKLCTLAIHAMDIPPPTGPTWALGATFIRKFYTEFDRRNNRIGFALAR
The experiment in a line: Renin IC50, QFRET (quenched fluorescence resonance energy transfer) assay. The conditions noted are these: FRET (quenched fluorescence resonance energy transfer) assay. It counts as biochemical.

The next assay concerns the target T2, renin in human plasma (Homo sapiens, UniProt P00797).
T2 construct: host or cells: recombinant enzyme added to human plasma from 10 normal donors
T2 sequence (P00797 67-406): T1 sequence (P00797 67-406)
The experiment in a line: Inhibition of renin in human plasma. Format: biochemical. The conditions noted are these: human plasma assay.

The structures appear in SMILES notation.

For `COCCCc1cc(CN(C(=O)[C@H]2CNCC[C@]2(OCCOC)c2ccc(F)c(F)c2)C2CC2)cc(OCCOC)c1` [Example 49, (3S,4R)—N-cyclopropyl-4-(3,4-difluorophenyl)-4-(2-methoxyethoxy)-N-[3-(2-methoxyethoxy)-5-(3-methoxypropyl)benzyl]piperidine-3-carboxamide], the IC50 was 2.7 nM on human recombinant renin and 11 nM against renin in human plasma.
Take `COCCCc1cc(CN(C(=O)[C@H]2CNCC[C@]2(O)c2cccnc2)C2CC2)cc(OCCOC)c1` (racemic) [Example 2, rac-(3S,4R)—N-cyclopropyl-4-hydroxy-N-[3-(2-methoxyethoxy)-5-(3-methoxypropyl)benzyl]-4-pyridin-3-ylpiperidine-3-carboxamide]: the values for the IC50 at human recombinant renin and at renin in human plasma were 140 nM and 280 nM, respectively.
Consider `COCCCc1cc(CN(C(=O)[C@H]2CNCC[C@]2(OCc2ccc(F)cc2)c2ccc(F)c(F)c2)C2CC2)cc(OCCOC)c1` [Example 48, (3S,4R)—N-cyclopropyl-4-(3,4-difluorophenyl)-4-[(4-fluorobenzyl)oxy]-N-[3-(2-methoxyethoxy)-5-(3-methoxypropyl)benzyl]piperidine-3-carboxamide], for which the IC50 at human recombinant renin was 1.1 nM; at renin in human plasma, 61 nM.
As to `COCCCc1cc(CN(C(=O)[C@H]2CNCC[C@]2(OC)c2ccc(F)c(F)c2)C2CC2)cc(OCCOC)c1` (racemic) [Example 35, Rac-(3S,4R)—N-cyclopropyl-4-(3,4-difluorophenyl)-4-methoxy-N-[3-(2-methoxyethoxy)-5-(3-methoxypropyl)benzyl]piperidine-3-carboxamide], the IC50 is 1 nM on human recombinant renin and 4.7 nM against renin in human plasma.
For the molecule `COCCCc1cc(CN(C(=O)[C@H]2CNCC[C@]2(O)c2ccn(C)c(=O)c2)C2CC2)cc(OCCOC)c1` (racemic) [Example 23, rac-(3S,4R)—N-cyclopropyl-4-hydroxy-N-[3-(2-methoxyethoxy)-5-(3-methoxypropyl)benzyl]-4-(1-methyl-2-oxo-1,2-dihydropyridin-4-yl)piperidine-3-carboxamide], the figures for the concentration for half-maximal inhibition (IC50) on human recombinant renin and against renin in human plasma were 76 nM and 136 nM, respectively.
On to `COCCCc1cc(CN(C(=O)[C@H]2CNCC[C@]2(OCc2cnn[nH]2)c2ccc(F)c(F)c2)C2CC2)cc(OCCOC)c1` [Example 51, (3S,4R)—N-cyclopropyl-4-(3,4-difluorophenyl)-N-[3-(2-methoxyethoxy)-5-(3-methoxypropyl)benzyl]-4-(1H-1,2,3-triazol-5-ylmethoxy)piperidine-3-carboxamide], for which the half-maximal inhibitory concentration (IC50) came out at 3.9 nM at human recombinant renin and 21 nM against renin in human plasma.
For `COCCc1ccc(Cl)c(CN(C(=O)[C@H]2CNCC[C@]2(OCC(O)CO)c2ccc(F)c(F)c2)C2CC2)c1` (stereo partly drawn) [Example 54, (3S,4R)—N-[2-chloro-5-(2-methoxyethyl)benzyl]-N-cyclopropyl-4-(3,4-difluorophenyl)-4-(2,3-dihydroxypropoxy)piperidine-3-carboxamide], the figures for the half-inhibitory concentration (IC50) at human recombinant renin and at renin in human plasma were 2.4 nM and 4.8 nM, respectively.

(Values after patent publication US20100249163A1, “RENIN INHIBITORS” (priority 2007, published 2010).)
